We go through 13 compounds from US20250114460A1, “NOVEL PLK1 DEGRADATION INDUCING COMPOUND” (UPPTHERA, INC., priority 2021, published 2025).

T1 sequence (P53350 whole entry): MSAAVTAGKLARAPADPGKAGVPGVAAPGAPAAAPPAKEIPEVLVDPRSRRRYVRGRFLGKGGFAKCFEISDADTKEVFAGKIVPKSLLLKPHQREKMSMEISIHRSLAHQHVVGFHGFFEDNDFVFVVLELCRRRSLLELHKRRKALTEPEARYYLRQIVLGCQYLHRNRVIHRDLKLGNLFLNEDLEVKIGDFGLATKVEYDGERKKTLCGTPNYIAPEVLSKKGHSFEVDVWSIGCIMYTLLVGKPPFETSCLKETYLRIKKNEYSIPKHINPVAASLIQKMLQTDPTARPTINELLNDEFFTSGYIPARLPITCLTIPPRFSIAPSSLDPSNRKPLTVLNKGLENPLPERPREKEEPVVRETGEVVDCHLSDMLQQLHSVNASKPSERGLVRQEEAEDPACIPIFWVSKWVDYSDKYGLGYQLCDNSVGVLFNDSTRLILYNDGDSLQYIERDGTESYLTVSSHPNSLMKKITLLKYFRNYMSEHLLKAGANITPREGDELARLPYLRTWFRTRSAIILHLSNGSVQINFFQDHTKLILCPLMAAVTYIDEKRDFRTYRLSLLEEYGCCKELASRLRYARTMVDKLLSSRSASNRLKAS

This assay concerns the target T1, PLK1 (Homo sapiens, UniProt P53350).
T1 construct: endogenous in cells; host or cells: HeLa LgBit (Plk1-HiBit KI): HeLa stably expressing LgBit, with a CRISPR/Cas9 knock-in of HiBit at the endogenous PLK1 locus
As to the kind of experiment: Luciferase assay for PLK1 in HeLa LgBit (Plk1-HiBit KI) cell line. The assay is classed as cell-based. The following applies: 300 nM compound, luminescence after 9 hours. On the procedure: 2. Luciferase Assay for PLK1
(1) Preparation and Culture of HeLa LgBit (Plk1-HiBit KI) Cell Line
A HeLa cell line in which the LgBit vector was transfected and expressed stably was prepared. Then, after constructing gRNA and donor to express the HiBit amino acid sequence behind the C-terminal of the Plk1 gene, which was inherent in the cell, it was inserted into the cell together with a vector capable of expressing CRISPR/Cas9. Only the cells in which the insertion was completed and knock-in had progressed were selected, sub-cultured and used.
(2) Treatment of Compounds of the Present Invention and Method of Luciferase Assay
In the case of HeLa LgBit (Plk1-HiBit KI), the compounds were treated after being released after thymidine block, and the process was as follows. Thymidine (Sigma-Aldrich Cat. No. T9250-5G) was completely dissolved in DW and used in the experiment. For thymidine block, the products were treated with 2 mM of thymidine and then incubated for 24 hours. For release and chemical treatment, the medium was suctioned and washed with 1×PBS. TrypLE™ was added and incubated in 37° C. CO2 incubator for 5 min. Cells neutralized by adding complete media were counted through a counter. For each well of a 96-well culture plate (SPL), 3.3×10^4 cells and a total medium volume of 150 μL were seeded and incubated in a CO2 incubator.
Each cell line was incubated in a CO2 incubator for 18 hours, and Endurazine was added to each well to make up 4% of the total volume. After adding the compound of the present invention in a 96-well white plate (SPL) to a concentration of 300 nM, the wavelength of the plate reader (BMG Labtech, CLARIOstar Plus) was set to […], and then the luminescence was tracked in real time.
In Table 2, Activity represents the ratio of the luminescense value of each Exemplary Compound treatment group to DMSO treatment group (+++: <0.3, ++<0.6, +<0.7).
Consider `COc1cc(C(=O)NC2CCN(CC3CCN(c4cccc5c4C(=O)N(C4CCC(=O)NC4=O)C5=O)C3)CC2)ccc1Nc1ncc2c(n1)N(C1CCCC1)CC(F)(F)C(=O)N2C` (stereo not shown) [Compound 46, 4-((9-cyclopentyl-7,7-difluoro-5-methyl-6-oxo-6,7,8,9-tetrahydro-5H-pyrimido[4,5-b][1,4]diazepin-2-yl)amino)-N-(1-((1-(2-(2,6-dioxopiperidin-3-yl)-1,3-dioxoisoindolin-4-yl)pyrrolidin-3-yl)methyl)piperidin-4-yl)-3-methoxybenzamide], for which the “Activity: ratio of the luminescense value of each Exemplary Compound treatment group to DMSO treatment group” value (“Activity: ratio” below) is “++ (++<0.6)”.

For the compound `COc1cc(C(=O)NC2CCN(C[C@@H]3CCN(c4cccc5c4C(=O)N(C4CCC(=O)NC4=O)C5=O)C3)CC2)ccc1Nc1ncc2c(n1)N(C1CCCC1)CC(F)(F)C(=O)N2C` (stereo partly drawn) [Compound 47, 4-((9-cyclopentyl-7,7-difluoro-5-methyl-6-oxo-6,7,8,9-tetrahydro-5H-pyrimido[4,5-b][1,4]diazepin-2-yl)amino)-N-(1-(((3S)-1-(2-(2,6-dioxopiperidin-3-yl)-1,3-dioxoisoindolin-4-yl)pyrrolidin-3-yl)methyl)piperidin-4-yl)-3-methoxybenzamide], the “Activity: ratio” value is reported as “++ (++<0.6)”.

As for `COc1cc(C(=O)NC2CCN(C[C@@H]3CCN(c4ccc5c(c4)C(=O)N(C4CCC(=O)NC4=O)C5=O)C3)CC2)ccc1Nc1ncc2c(n1)N(C1CCCC1)CC(F)(F)C(=O)N2C` (stereo partly drawn) [Compound 48, 4-((9-cyclopentyl-7,7-difluoro-5-methyl-6-oxo-6,7,8,9-tetrahydro-5H-pyrimido[4,5-b][1,4]diazepin-2-yl)amino)-N-(1-(((3S)-1-(2-(2,6-dioxopiperidin-3-yl)-1,3-dioxoisoindolin-5-yl)pyrrolidin-3-yl)methyl)piperidin-4-yl)-3-methoxybenzamide], the “Activity: ratio” value is given as “+ (+<0.7)”.

Consider `COc1cc(C(=O)NC2CCN(CCCC3CCCN(c4cccc5c4C(=O)N(C4CCC(=O)NC4=O)C5=O)C3)CC2)ccc1Nc1ncc2c(n1)N(C1CCCC1)CC(F)(F)C(=O)N2C` (stereo not shown) [Compound 57, 4-((9-cyclopentyl-7,7-difluoro-5-methyl-6-oxo-6,7,8,9-tetrahydro-5H-pyrimido[4,5-b][1,4]diazepin-2-yl)amino)-N-(1-(3-(1-(2-(2,6-dioxopiperidin-3-yl)-1,3-dioxoisoindolin-4-yl)piperidin-3-yl)propyl)piperidin-4-yl)-3-methoxybenzamide], for which the “Activity: ratio” value was “+ (+<0.7)”.

In the case of `COc1cc(C(=O)NC2CCN(C(=O)CCN3CCN(c4ccc5c(c4)CN(C4CCC(=O)NC4=O)C5=O)CC3)CC2)c(F)cc1Nc1ncc2c(n1)N(C1CCCC1)CC(F)(F)C(=O)N2C` (stereo not shown) [Compound 61, 4-((9-cyclopentyl-7,7-difluoro-5-methyl-6-oxo-6,7,8,9-tetrahydro-5H-pyrimido[4,5-b][1,4]diazepin-2-yl)amino)-N-(1-(3-(4-(2-(2,6-dioxopiperidin-3-yl)-1-oxoisoindolin-5-yl)piperazin-1-yl)propanoyl)piperidin-4-yl)-2-fluoro-5-methoxybenzamide], the “Activity: ratio” value is given as “++ (++<0.6)”.

For `COc1cc(C(=O)NC2CCN(C(=O)CCCN3CCN(c4cccc5c4C(=O)N(C4CCC(=O)NC4=O)C5=O)CC3)CC2)ccc1Nc1ncc2c(n1)N(C1CCCC1)CC(F)(F)C(=O)N2C` (stereo not shown) [Compound 64, 4-((9-cyclopentyl-7,7-difluoro-5-methyl-6-oxo-6,7,8,9-tetrahydro-5H-pyrimido[4,5-b][1,4]diazepin-2-yl)amino)-N-(1-(4-(4-(2-(2,6-dioxopiperidin-3-yl)-1,3-dioxoisoindolin-4-yl)piperazin-1-yl)butanoyl)piperidin-4-yl)-3-methoxybenzamide], the “Activity: ratio” value is listed as “++ (++<0.6)”.

Turning to `COc1cc(C(=O)NC2CCN(C(=O)CCCCN3CCN(c4cccc5c4C(=O)N(C4CCC(=O)NC4=O)C5=O)CC3)CC2)ccc1Nc1ncc2c(n1)N(C1CCCC1)CC(F)(F)C(=O)N2C` (stereo not shown) [Compound 65, 4-((9-cyclopentyl-7,7-difluoro-5-methyl-6-oxo-6,7,8,9-tetrahydro-5H-pyrimido[4,5-b][1,4]diazepin-2-yl)amino)-N-(1-(5-(4-(2-(2,6-dioxopiperidin-3-yl)-1,3-dioxoisoindolin-4-yl)piperazin-1-yl)pentanoyl)piperidin-4-yl)-3-methoxybenzamide], the “Activity: ratio” value is on record as “++ (++<0.6)”.

With `COc1cc(C(=O)NC2CCN(C(=O)CCN3CCN(c4cccc5c4C(=O)N(C4CCC(=O)NC4=O)C5=O)CC3)CC2)ccc1Nc1ncc2c(n1)N(C1CC1)CC(F)(F)C(=O)N2C` (stereo not shown) [Compound 67, 4-((9-cyclopropyl-7,7-difluoro-5-methyl-6-oxo-6,7,8,9-tetrahydro-5H-pyrimido[4,5-b][1,4]diazepin-2-yl)amino)-N-(1-(3-(4-(2-(2,6-dioxopiperidin-3-yl)-1,3-dioxoisoindolin-4-yl)piperazin-1-yl)propanoyl)piperidin-4-yl)-3-methoxybenzamide], the “Activity: ratio” value was “++ (++<0.6)”.

On to `CN1C(=O)C(F)(F)CN(C2CCCC2)c2nc(Nc3ccc(C(=O)NC4CCN(C(=O)CCN5CCN(c6cccc7c6C(=O)N(C6CCC(=O)NC6=O)C7=O)CC5)CC4)cc3OCCO)ncc21` (stereo not shown) [Compound 73, 4-((9-cyclopentyl-7,7-difluoro-5-methyl-6-oxo-6,7,8,9-tetrahydro-5H-pyrimido[4,5-b][1,4]diazepin-2-yl)amino)-N-(1-(3-(4-(2-(2,6-dioxopiperidin-3-yl)-1,3-dioxoisoindolin-4-yl)piperazin-1-yl)propanoyl)piperidin-4-yl)-3-(2-hydroxyethoxy)benzamide], for which the “Activity: ratio” value is reported as “++ (++<0.6)”.

Turning to `CN1C(=O)C(F)(F)CN(C2CCCC2)c2nc(Nc3ccc(C(=O)NC4CCN(C(=O)CCN5CCN(c6cccc7c6C(=O)N(C6CCC(=O)NC6=O)C7=O)CC5)CC4)cc3C(F)(F)F)ncc21` (stereo not shown) [Compound 75, 4-((9-cyclopentyl-7,7-difluoro-5-methyl-6-oxo-6,7,8,9-tetrahydro-5H-pyrimido[4,5-b][1,4]diazepin-2-yl)amino)-N-(1-(3-(4-(2-(2,6-dioxopiperidin-3-yl)-1,3-dioxoisoindolin-4-yl)piperazin-1-yl)propanoyl)piperidin-4-yl)-3-(trifluoromethyl)benzamide], the “Activity: ratio” value is “++ (++<0.6)”.

Take `COc1cc(C(=O)NC2CCN(C(=O)COC3CN(c4cccc5c4C(=O)N(C4CCC(=O)NC4=O)C5=O)C3)CC2)ccc1Nc1ncc2c(n1)N(C1CCCC1)CC(F)(F)C(=O)N2C` (stereo not shown) [Compound 80, 4-((9-cyclopentyl-7,7-difluoro-5-methyl-6-oxo-6,7,8,9-tetrahydro-5H-pyrimido[4,5-b][1,4]diazepin-2-yl)amino)-N-(1-(2-((1-(2-(2,6-dioxopiperidin-3-yl)-1,3-dioxoisoindolin-4-yl)azetidin-3-yl)oxy)acetyl)piperidin-4-yl)-3-methoxybenzamide]: the “Activity: ratio” value is “++ (++<0.6)”.

For `COc1cc(C(=O)N[C@H]2CCN(C(=O)CCN3CCN(c4ccc5c(c4)CN(C4CCC(=O)NC4=O)C5=O)CC3)C2)c(F)cc1Nc1ncc2c(n1)N(C1CCCC1)CC(F)(F)C(=O)N2C` (stereo partly drawn) [Compound 84, 4-((9-cyclopentyl-7,7-difluoro-5-methyl-6-oxo-6,7,8,9-tetrahydro-5H-pyrimido[4,5-b][1,4]diazepin-2-yl)amino)-N-((3S)-1-(3-(4-(2-(2,6-dioxopiperidin-3-yl)-1-oxoisoindolin-5-yl)piperazin-1-yl)propanoyl)pyrrolidin-3-yl)-2-fluoro-5-methoxybenzamide], the “Activity: ratio” value was “++ (++<0.6)”.

As for `COc1cc(C(=O)N2CCN(CCCN3CCN(c4cccc5c4C(=O)N(C4CCC(=O)NC4=O)C5=O)CC3)CC2)ccc1Nc1ncc2c(n1)N(C1CCCC1)CC(F)(F)C(=O)N2C` (stereo not shown) [Compound 87, 4-(4-(3-(4-(4-((9-cyclopentyl-7,7-difluoro-5-methyl-6-oxo-6,7,8,9-tetrahydro-5H-pyrimido[4,5-b][1,4]diazepin-2-yl)amino)-3-methoxybenzoyl)piperazin-1-yl)propyl)piperazin-1-yl)-2-(2,6-dioxopiperidin-3-yl)isoindoline-1,3-dione], the “Activity: ratio” value is listed as “++ (++<0.6)”.
